The numbers were not newly measured in patent US8895779B2 (BioAmber Inc., priority 2010, dated 2014), which cites them from elsewhere.

The conditions of this series: Table 1, Run 1, acid charged.

Turning to `O=C(O)CCCCC(=O)O` [AA, adipic acid], the pKa1 was 4.43.
